Data from publication PMC7265341, “Quantifying CDK inhibitor selectivity in live cells” (Nature Communications, 2020).
Like-named read-outs stand apart in the source and are kept apart here.

Legend:
CDK8/Cyclin C = CDK8/Cyclin C (Homo sapiens, UniProt P49336); assay: NanoBRET live-cell target engagement, NanoLuc-CDK8/Cyclin C in HEK-293; type: binding; conditions: 10µM
CDK11B/Cyclin L2 = CDK11B/Cyclin L2 (Homo sapiens, UniProt P21127); assay: NanoBRET live-cell target engagement, CDK11B-NanoLuc/Cyclin L2 in HEK-293; type: binding; conditions: 10µM
CDK4/Cyclin D1 = CDK4/Cyclin D1 (Homo sapiens, UniProt P11802); assay: NanoBRET live-cell target engagement, NanoLuc-CDK4/Cyclin D1 in HEK-293; type: binding; conditions: 10µM
Sequence of CDK4/Cyclin D1 (P11802 whole entry): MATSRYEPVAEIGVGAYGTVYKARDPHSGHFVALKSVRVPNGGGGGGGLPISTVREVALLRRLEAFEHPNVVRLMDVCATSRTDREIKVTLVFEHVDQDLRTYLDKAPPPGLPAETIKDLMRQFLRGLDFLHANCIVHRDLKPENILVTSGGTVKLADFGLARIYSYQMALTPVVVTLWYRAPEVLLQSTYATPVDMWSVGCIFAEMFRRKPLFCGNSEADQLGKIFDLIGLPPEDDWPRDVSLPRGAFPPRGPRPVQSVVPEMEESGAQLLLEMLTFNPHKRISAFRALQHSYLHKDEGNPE
Sequence of CDK4/Cyclin D1 (P24385 whole entry partner): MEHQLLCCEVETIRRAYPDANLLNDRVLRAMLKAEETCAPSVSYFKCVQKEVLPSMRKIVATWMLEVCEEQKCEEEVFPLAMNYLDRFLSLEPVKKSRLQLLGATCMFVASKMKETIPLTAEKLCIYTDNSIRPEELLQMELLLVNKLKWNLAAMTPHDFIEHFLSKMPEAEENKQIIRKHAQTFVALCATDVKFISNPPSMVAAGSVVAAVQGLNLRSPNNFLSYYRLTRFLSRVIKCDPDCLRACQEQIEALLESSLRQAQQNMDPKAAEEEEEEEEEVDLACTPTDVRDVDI

CDK12/Cyclin K = CDK12/Cyclin K (Homo sapiens, UniProt Q9NYV4); assay: NanoBRET live-cell target engagement, CDK12-NanoLuc/Cyclin K in HEK-293; type: binding
Sequence of CDK12/Cyclin K (Q9NYV4 1-1481 isoform Q9NYV4-2): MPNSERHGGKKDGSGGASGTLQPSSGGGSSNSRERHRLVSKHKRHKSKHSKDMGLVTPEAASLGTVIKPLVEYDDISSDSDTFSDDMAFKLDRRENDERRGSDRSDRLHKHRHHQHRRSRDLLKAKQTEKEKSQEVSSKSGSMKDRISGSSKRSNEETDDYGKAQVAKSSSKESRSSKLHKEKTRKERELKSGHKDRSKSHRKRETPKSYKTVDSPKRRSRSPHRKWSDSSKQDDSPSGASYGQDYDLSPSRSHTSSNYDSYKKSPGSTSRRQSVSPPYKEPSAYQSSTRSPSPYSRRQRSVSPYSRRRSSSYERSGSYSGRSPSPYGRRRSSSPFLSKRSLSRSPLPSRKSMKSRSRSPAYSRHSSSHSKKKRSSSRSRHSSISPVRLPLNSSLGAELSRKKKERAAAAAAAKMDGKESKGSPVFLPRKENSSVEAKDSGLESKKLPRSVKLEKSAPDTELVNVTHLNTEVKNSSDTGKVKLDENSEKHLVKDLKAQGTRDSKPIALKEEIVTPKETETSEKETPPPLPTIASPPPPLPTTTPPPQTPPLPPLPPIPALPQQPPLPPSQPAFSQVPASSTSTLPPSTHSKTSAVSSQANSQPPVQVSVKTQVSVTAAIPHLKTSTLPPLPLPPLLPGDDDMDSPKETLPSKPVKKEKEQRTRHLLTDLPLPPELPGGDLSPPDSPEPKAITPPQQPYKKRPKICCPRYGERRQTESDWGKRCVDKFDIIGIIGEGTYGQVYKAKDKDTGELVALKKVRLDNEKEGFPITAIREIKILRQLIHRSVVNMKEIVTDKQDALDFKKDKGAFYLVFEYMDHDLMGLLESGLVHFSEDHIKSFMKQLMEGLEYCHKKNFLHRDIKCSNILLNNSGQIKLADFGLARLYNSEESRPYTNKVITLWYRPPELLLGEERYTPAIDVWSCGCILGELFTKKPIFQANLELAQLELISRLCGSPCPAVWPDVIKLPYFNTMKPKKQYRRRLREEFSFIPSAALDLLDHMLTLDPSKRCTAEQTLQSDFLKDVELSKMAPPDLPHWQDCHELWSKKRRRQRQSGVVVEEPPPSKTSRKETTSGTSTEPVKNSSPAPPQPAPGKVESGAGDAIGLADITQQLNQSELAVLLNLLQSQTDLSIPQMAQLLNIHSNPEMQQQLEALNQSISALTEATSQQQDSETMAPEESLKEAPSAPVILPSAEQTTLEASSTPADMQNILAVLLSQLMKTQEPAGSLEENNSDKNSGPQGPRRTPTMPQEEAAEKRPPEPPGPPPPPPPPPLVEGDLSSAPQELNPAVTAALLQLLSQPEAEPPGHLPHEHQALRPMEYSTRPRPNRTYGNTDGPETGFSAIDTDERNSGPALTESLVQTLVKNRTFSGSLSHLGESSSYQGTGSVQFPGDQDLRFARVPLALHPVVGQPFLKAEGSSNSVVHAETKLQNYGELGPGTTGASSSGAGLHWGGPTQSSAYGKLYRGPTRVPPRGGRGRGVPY
Sequence of CDK12/Cyclin K (O75909 whole entry partner): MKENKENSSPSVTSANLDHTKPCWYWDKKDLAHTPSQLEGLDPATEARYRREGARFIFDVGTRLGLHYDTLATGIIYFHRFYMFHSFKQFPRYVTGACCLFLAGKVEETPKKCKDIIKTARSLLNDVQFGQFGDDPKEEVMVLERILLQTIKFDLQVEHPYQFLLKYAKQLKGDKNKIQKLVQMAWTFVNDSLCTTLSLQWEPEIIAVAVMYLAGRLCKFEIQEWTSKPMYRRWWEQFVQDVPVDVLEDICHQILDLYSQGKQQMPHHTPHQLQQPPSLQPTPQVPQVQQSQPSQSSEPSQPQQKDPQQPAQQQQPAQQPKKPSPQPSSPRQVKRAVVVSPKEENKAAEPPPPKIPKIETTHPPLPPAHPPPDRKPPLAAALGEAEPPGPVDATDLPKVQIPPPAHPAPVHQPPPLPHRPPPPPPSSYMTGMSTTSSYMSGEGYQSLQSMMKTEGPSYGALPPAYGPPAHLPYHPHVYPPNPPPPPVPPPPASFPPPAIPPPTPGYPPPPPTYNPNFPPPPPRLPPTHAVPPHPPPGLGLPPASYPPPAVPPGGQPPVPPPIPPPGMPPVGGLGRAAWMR

CDK9/Cyclin K = CDK9/Cyclin K (Homo sapiens, UniProt P50750); assay: NanoBRET live-cell target engagement, NanoLuc-CDK9/Cyclin K in HEK-293; type: binding; conditions: 10µM
CDK19/Cyclin C = CDK19/Cyclin C (Homo sapiens, UniProt Q9BWU1); assay: NanoBRET live-cell target engagement, NanoLuc-CDK19/Cyclin C in HEK-293; conditions: 10µM
Sequence of CDK19/Cyclin C (Q9BWU1 whole entry): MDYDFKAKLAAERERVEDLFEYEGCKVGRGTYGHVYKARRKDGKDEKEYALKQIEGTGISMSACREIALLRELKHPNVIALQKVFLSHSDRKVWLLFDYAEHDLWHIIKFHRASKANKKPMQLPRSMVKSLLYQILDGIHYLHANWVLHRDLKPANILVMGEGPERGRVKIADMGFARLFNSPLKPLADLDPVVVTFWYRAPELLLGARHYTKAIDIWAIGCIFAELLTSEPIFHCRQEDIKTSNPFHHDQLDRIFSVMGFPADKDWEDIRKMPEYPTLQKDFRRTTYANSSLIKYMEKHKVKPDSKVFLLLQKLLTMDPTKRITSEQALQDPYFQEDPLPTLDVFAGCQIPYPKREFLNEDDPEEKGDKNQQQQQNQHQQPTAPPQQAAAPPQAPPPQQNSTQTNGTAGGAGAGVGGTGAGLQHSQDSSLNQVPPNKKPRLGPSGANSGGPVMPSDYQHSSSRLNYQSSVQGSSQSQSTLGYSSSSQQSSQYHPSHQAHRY
Sequence of CDK19/Cyclin C (P24863 whole entry partner): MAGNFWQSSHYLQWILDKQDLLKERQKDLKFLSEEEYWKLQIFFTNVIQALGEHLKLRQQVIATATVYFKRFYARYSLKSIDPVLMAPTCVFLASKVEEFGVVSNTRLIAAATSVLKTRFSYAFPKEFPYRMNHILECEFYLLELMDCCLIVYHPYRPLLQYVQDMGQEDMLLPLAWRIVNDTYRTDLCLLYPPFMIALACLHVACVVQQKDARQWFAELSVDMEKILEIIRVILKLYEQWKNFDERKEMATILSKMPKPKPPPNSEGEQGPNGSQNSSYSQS

CDK15/Cyclin Y = CDK15/Cyclin Y (Homo sapiens, UniProt Q96Q40); assay: NanoBRET live-cell target engagement, NanoLuc-CDK15/Cyclin Y in HEK-293; type: binding; conditions: 10µM
CDK6/Cyclin D1 = CDK6/Cyclin D1 (Homo sapiens, UniProt Q00534); assay: NanoBRET live-cell target engagement, NanoLuc-CDK6/Cyclin D1 in HEK-293; type: binding; conditions: 10µM
Sequence of CDK6/Cyclin D1 (Q00534 whole entry): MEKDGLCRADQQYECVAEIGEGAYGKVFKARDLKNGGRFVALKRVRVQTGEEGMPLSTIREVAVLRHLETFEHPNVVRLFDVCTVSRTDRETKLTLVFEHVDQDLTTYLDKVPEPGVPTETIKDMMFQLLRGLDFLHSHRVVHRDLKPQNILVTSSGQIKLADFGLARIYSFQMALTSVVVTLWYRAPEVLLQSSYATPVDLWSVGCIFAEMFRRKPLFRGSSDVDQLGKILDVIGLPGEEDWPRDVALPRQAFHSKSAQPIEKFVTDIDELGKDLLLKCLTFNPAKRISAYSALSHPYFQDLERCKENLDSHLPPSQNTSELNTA
Sequence of CDK6/Cyclin D1 (P24385 whole entry partner): as the sequence (P24385 whole entry partner) above

CDK18/Cyclin Y = CDK18/Cyclin Y (Homo sapiens, UniProt Q07002); assay: NanoBRET live-cell target engagement, CDK18-NanoLuc/Cyclin Y in HEK-293; type: binding; conditions: 10µM
CDK20/Cyclin H = CDK20/Cyclin H (Homo sapiens, UniProt Q8IZL9); assay: NanoBRET live-cell target engagement, NanoLuc-CDK20/Cyclin H in HEK-293; type: binding; conditions: 10µM
CDK14/Cyclin Y = CDK14/Cyclin Y (Homo sapiens, UniProt O94921); assay: NanoBRET live-cell target engagement, CDK14-NanoLuc/Cyclin Y in HEK-293; type: binding; conditions: 10µM
CDK5/CDK5R1 = CDK5/CDK5R1 (Homo sapiens, UniProt Q00535); assay: NanoBRET live-cell target engagement, CDK5-NanoLuc/CDK5R1 in HEK-293; type: binding; conditions: 10µM
CDK16/Cyclin Y = CDK16/Cyclin Y (Homo sapiens, UniProt Q00536); assay: NanoBRET live-cell target engagement, CDK16-NanoLuc/Cyclin Y in HEK-293; type: binding; conditions: 10µM
CDK13/Cyclin K = CDK13/Cyclin K (Homo sapiens, UniProt Q14004); assay: NanoBRET live-cell target engagement, CDK13-NanoLuc/Cyclin K in HEK-293; type: binding
CDK10/Cyclin L2 = CDK10/Cyclin L2 (Homo sapiens, UniProt Q15131); assay: NanoBRET live-cell target engagement, CDK10-NanoLuc/Cyclin L2 in HEK-293; conditions: for IC50: read-out: CDK10/L2 IC50
CDK7 = CDK7 (Homo sapiens, UniProt P50613); assay: NanoBRET live-cell target engagement, NanoLuc-CDK7 in HEK-293; type: binding; conditions: 10µM
CDK1/Cyclin E1 = CDK1/Cyclin E1 (Homo sapiens, UniProt P06493); assay: NanoBRET live-cell target engagement, CDK1-NanoLuc/Cyclin E1 in HEK-293; type: binding; conditions: 10µM
CDK11A/Cyclin L2 = biological target: T1, CDK11A/Cyclin L2 (Homo sapiens, UniProt Q9UQ88); assay: NanoBRET live-cell target engagement, CDK11A-NanoLuc/Cyclin L2 in HEK-293; type: binding
T1 sequence (Q9UQ88 1-783): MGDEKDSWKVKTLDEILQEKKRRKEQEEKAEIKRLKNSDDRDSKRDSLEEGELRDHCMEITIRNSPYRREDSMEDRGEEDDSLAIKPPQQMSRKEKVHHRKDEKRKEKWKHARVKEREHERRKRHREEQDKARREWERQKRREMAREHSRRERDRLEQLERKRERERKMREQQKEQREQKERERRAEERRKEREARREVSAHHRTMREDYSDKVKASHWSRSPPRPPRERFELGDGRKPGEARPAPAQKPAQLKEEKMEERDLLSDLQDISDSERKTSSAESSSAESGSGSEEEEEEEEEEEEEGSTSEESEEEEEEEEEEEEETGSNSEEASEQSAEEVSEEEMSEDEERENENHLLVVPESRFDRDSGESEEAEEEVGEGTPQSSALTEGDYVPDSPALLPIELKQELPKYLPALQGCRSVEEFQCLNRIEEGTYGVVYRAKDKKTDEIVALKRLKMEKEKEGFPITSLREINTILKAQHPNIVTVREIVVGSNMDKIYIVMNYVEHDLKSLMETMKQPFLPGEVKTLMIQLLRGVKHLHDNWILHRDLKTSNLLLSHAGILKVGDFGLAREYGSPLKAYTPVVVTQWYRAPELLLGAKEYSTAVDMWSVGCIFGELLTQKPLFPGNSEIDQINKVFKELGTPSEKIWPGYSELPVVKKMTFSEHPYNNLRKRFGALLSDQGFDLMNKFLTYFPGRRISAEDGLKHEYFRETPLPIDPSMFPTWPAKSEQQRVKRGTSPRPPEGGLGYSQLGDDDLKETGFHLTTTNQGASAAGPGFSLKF

CDK17/Cyclin Y = CDK17/Cyclin Y (Homo sapiens, UniProt Q00537); assay: NanoBRET live-cell target engagement, CDK17-NanoLuc/Cyclin Y in HEK-293; type: binding; conditions: 10µM
Sequence of CDK17/Cyclin Y (Q00537 whole entry): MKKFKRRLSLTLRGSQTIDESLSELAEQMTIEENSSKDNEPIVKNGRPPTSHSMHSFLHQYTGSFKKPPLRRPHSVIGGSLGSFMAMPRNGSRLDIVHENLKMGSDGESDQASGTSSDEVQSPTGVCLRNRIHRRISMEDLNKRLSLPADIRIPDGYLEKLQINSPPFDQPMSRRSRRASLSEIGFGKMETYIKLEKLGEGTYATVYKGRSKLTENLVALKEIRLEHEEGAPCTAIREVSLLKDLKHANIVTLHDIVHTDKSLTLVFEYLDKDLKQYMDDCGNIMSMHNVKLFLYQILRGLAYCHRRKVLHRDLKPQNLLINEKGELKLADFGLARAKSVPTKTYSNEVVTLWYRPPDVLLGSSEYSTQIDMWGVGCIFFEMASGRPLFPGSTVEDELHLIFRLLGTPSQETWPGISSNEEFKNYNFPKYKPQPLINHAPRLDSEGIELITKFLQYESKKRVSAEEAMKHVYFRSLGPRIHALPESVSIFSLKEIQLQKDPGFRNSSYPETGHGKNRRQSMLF
Sequence of CDK17/Cyclin Y (Q8ND76 whole entry partner): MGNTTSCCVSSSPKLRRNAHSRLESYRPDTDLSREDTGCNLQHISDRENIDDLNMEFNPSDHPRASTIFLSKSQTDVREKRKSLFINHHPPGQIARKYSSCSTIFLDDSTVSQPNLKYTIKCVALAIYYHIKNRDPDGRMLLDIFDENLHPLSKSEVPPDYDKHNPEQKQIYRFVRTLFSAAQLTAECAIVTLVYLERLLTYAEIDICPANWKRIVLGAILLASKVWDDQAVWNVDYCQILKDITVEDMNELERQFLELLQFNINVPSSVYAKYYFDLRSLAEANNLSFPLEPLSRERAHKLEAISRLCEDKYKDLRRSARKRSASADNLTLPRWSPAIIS

In the case of `CN(C)C/C=C/C(=O)Nc1ccc(C(=O)Nc2cccc(Nc3ncc(Cl)c(-c4c[nH]c5ccccc45)n3)c2)cc1` [THZ1], the “CDK8/C Inhibition at 10µM (%)” value (CDK8/Cyclin C; average of experiments) is reported as 62.9%, the “CDK8/C Inhibition at 10µM (%)” value (CDK8/Cyclin C; independent experiment 1) is reported as 34.6% and the “CDK8/C Inhibition at 10µM (%)” value (CDK8/Cyclin C; independent experiment 2) is reported as 91.2%. For the same compound, the “CDK11b/L2 Inhibition at 10µM (%)” value (CDK11B/Cyclin L2; average of experiments) was 34.5%, the “CDK11b/L2 Inhibition at 10µM (%)” value (CDK11B/Cyclin L2; independent experiment 1) was 13.3% and the “CDK11b/L2 Inhibition at 10µM (%)” value (CDK11B/Cyclin L2; independent experiment 2) was 55.7%. The “CDK4/D1 Inhibition at 10µM (%)” value (CDK4/Cyclin D1; average of experiments) was 53.8%, the “CDK4/D1 Inhibition at 10µM (%)” value (CDK4/Cyclin D1; independent experiment 1) was 13.3% and the “CDK4/D1 Inhibition at 10µM (%)” value (CDK4/Cyclin D1; independent experiment 2) was 94.2%. The “CDK12/K Inhibition at 10µM (%)” value (CDK12/Cyclin K; average of experiments) was 45.5%, the “CDK12/K Inhibition at 10µM (%)” value (CDK12/Cyclin K; independent experiment 1) was 26.4% and the “CDK12/K Inhibition at 10µM (%)” value (CDK12/Cyclin K; independent experiment 2) was 64.6%. For the same compound, the “CDK12 occupancy at 10 µM” value (CDK12/Cyclin K; primary screen, live HEK-293) was ~50%, the “CDK9/K Inhibition at 10µM (%)” value (CDK9/Cyclin K; average of experiments) was 70.0% and the “CDK9/K Inhibition at 10µM (%)” value (CDK9/Cyclin K; independent experiment 1) was 44.1%. For the same compound, the “CDK9/K Inhibition at 10µM (%)” value (CDK9/Cyclin K; independent experiment 2) was 96.0%, the “CDK19/C Inhibition at 10µM (%)” value (CDK19/Cyclin C; average of experiments) was 66.6% and the “CDK19/C Inhibition at 10µM (%)” value (CDK19/Cyclin C; independent experiment 1) was 44.1%. For the same compound, the “CDK19/C Inhibition at 10µM (%)” value (CDK19/Cyclin C; independent experiment 2) was 89.1%, the “CDK15/Y Inhibition at 10µM (%)” value (CDK15/Cyclin Y; average of experiments) was 64.9% and the “CDK15/Y Inhibition at 10µM (%)” value (CDK15/Cyclin Y; independent experiment 1) was 40.7%. The “CDK15/Y Inhibition at 10µM (%)” value (CDK15/Cyclin Y; independent experiment 2) was 89.2%, the “CDK6/D1 Inhibition at 10µM (%)” value (CDK6/Cyclin D1; average of experiments) was 73.8% and the “CDK6/D1 Inhibition at 10µM (%)” value (CDK6/Cyclin D1; independent experiment 1) was 53.8%. For the same compound, the “CDK6/D1 Inhibition at 10µM (%)” value (CDK6/Cyclin D1; independent experiment 2) was 93.8%, the “CDK18/Y Inhibition at 10µM (%)” value (CDK18/Cyclin Y; average of experiments) was 48.6% and the “CDK18/Y Inhibition at 10µM (%)” value (CDK18/Cyclin Y; independent experiment 1) was 73.0%. For the same compound, the “CDK18/Y Inhibition at 10µM (%)” value (CDK18/Cyclin Y; independent experiment 2) was 24.3%, the “CDK20/H Inhibition at 10µM (%)” value (CDK20/Cyclin H; independent experiment 1) was 63.8% and the “CDK20/H Inhibition at 10µM (%)” value (CDK20/Cyclin H; independent experiment 2) was 90.1%. The “CDK14/Y Inhibition at 10µM (%)” value (CDK14/Cyclin Y; average of experiments) was 33.1%, the “CDK14/Y Inhibition at 10µM (%)” value (CDK14/Cyclin Y; independent experiment 1) was 6.6% and the “CDK14/Y Inhibition at 10µM (%)” value (CDK14/Cyclin Y; independent experiment 2) was 59.6%. For the same compound, the “CDK5/CDK5R1 Inhibition at 10µM (%)” value (CDK5/CDK5R1; average of experiments) was 42.5%, the “CDK5/CDK5R1 Inhibition at 10µM (%)” value (CDK5/CDK5R1; independent experiment 1) was 19.2% and the “CDK5/CDK5R1 Inhibition at 10µM (%)” value (CDK5/CDK5R1; independent experiment 2) was 65.8%. The “CDK16/Y Inhibition at 10µM (%)” value (CDK16/Cyclin Y; independent experiment 1) was 74.4%, the “CDK16/Y Inhibition at 10µM (%)” value (CDK16/Cyclin Y; independent experiment 2) was 11.2% and the “CDK13/K Inhibition at 10µM (%)” value (CDK13/Cyclin K; average of experiments) was 48.1%. The “CDK13/K Inhibition at 10µM (%)” value (CDK13/Cyclin K; independent experiment 1) was 34.3%, the “CDK13/K Inhibition at 10µM (%)” value (CDK13/Cyclin K; independent experiment 2) was 62.0% and the “CDK13 occupancy at 10 µM” value (CDK13/Cyclin K; primary screen, live HEK-293) was ~50%. For the same compound, the “CDK10/L2 Inhibition at 10µM (%)” value (CDK10/Cyclin L2; average of experiments) was 48.0%, the “CDK10/L2 Inhibition at 10µM (%)” value (CDK10/Cyclin L2; independent experiment 1) was 11.4% and the “CDK10/L2 Inhibition at 10µM (%)” value (CDK10/Cyclin L2; independent experiment 2) was 84.6%. The IC50 (CDK10/Cyclin L2; average (± SEM where n=3)) was 1000 ± 300 nM, the IC50 (CDK10/Cyclin L2; independent experiment 1) was 660 nM and the IC50 (CDK10/Cyclin L2; independent experiment 2) was 790 nM. For the same compound, the IC50 (CDK10/Cyclin L2; independent experiment 3) was 1500 nM, the “CDK7 Inhibition at 10µM (%)” value (CDK7; average of experiments) was 83.9% and the “CDK7 Inhibition at 10µM (%)” value (CDK7; independent experiment 1) was 70.6%. The “CDK7 Inhibition at 10µM (%)” value (CDK7; independent experiment 2) was 97.1%, the “CDK1/E1 Inhibition at 10µM (%)” value (CDK1/Cyclin E1; average of experiments) was 91.9% and the “CDK1/E1 Inhibition at 10µM (%)” value (CDK1/Cyclin E1; independent experiment 1) was 87.2%. The “CDK1/E1 Inhibition at 10µM (%)” value (CDK1/Cyclin E1; independent experiment 2) was 96.6%, the “CDK11a/L2 Inhibition at 10µM (%)” value (CDK11A/Cyclin L2; average of experiments) was 42.5% and the “CDK11a/L2 Inhibition at 10µM (%)” value (CDK11A/Cyclin L2; independent experiment 1) was 8.0%. The “CDK11a/L2 Inhibition at 10µM (%)” value (CDK11A/Cyclin L2; independent experiment 2) was 77.1%, the IC50 (CDK11A/Cyclin L2; independent experiment 1, read-out: CDK11a/L2 IC50) was 450 nM and the IC50 (CDK11A/Cyclin L2; independent experiment 2, read-out: CDK11a/L2 IC50) was 230 nM. For the same compound, the IC50 (CDK11A/Cyclin L2; independent experiment 3, read-out: CDK11a/L2 IC50) was 218 nM, the IC50 (CDK11A/Cyclin L2; live HEK-293, 2 h, mean ± S.E.M. (n=3) or mean (n=2), read-out: IC50 for CDK/cyclin complexes, CDK11a/L2) was 300 nM and the “CDK17/Y Inhibition at 10µM (%)” value (CDK17/Cyclin Y; average of experiments) was 50.4%. For the same compound, the “CDK17/Y Inhibition at 10µM (%)” value (CDK17/Cyclin Y; independent experiment 1) was 73.0% and the “CDK17/Y Inhibition at 10µM (%)” value (CDK17/Cyclin Y; independent experiment 2) was 27.8%.
